Results reported in patent US20260373119A1, “NOVEL COMPOUND, AND COMPOSITION FOR PREVENTING OR TREATING HER2-POSITIVE CANCER, COMPRISING SAME” (EWHA UNIVERSITY - INDUSTRY COLLABORATION FOUNDATION, priority 2022, published 2026).

Key:
[1] = target: MED23 wild-type (FLAG-tagged) (Homo sapiens, UniProt Q9ULK4); assay: LC-MS/MS protein-small molecule interaction, wild-type MED23; type: binding; settings: FLAG pulldown, LC-MS/MS
Description: HEK293 cells were seeded in a […] and incubated until they reached 70-80% confluency. The cells were transfected with p3Xflag-myc-CMV26-MED23^WT and p3Xflag-myc-CMV26-MED23^D400A/H449G plasmids for 24 hours, followed by lysis to obtain protein extracts. To isolate the candidate compound (YK1) bound to MED23, total lysates were incubated with YK1 for 4 hours and subsequently subjected to pulldown using FLAG-agarose beads (Sigma Aldrich, USA). The precipitated beads were washed at least three times to completely remove unbound compounds. To separate the candidate compound from the precipitated MED23, 50 μL of the sample was extracted with 1 mL of acetonitrile and centrifuged at 13,000 rpm at 4 °C for 10 minutes. The supernatant (1,000 μL) from each sample was transferred to a new tube and dried under nitrogen gas at 37 °C. For YK1 analysis, the residue was dissolved in 50 μL of ACN and vortexed for 10 minutes. […] The mixture was then extracted with 450 μL of ACN by ultrasonic treatment and vortex mixing. The candidate compound bound to MED23 was finally analyzed using an Agilent 6460 triple quadrupole mass spectrometer (Agilent Technologies, USA).

NCI-N87 cells = assay: cell cycle analysis (FACS); type: cell-based
Description: Specifically, 5×10^5 NCI-N87 cells were seeded in 60 mm dishes and cultured until they reached 70-80% confluence. The cells were treated with varying concentrations of the candidate compound and cultured for 8 hours. The cells were treated with trypsin and then washed with cold PBS (pH 7.4). For cell cycle analysis, the cells were fixed with 70% ethanol and cultured at 4 °C for 30 minutes, followed by staining with FxCycle™ PI/RNase staining solution (Invitrogen™, USA). Cell cycle analysis was performed using a fluorescence-activated cell sorting (FACS) device (BD Biosciences, USA).

[2] = target: T1, (His)6-MED23391-582 / FITC-ELF3129-145 peptide (Homo sapiens, UniProt Q9ULK4); assay: fluorescence polarization displacement assay; type: binding
T1 construct: 391-582 and fluorescein isothiocyanate (FITC)-labeled
T1 sequence (Q9ULK4 391-582 limits assumed): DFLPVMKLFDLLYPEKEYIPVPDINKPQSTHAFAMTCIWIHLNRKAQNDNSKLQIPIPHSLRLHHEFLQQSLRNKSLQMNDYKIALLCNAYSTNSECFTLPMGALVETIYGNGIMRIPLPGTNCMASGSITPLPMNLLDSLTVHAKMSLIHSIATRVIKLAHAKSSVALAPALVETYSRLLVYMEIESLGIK
Description: The samples, adjusted to a final volume of 50 μL, were incubated at room temperature for 30 minutes. Kd values were calculated using a least-squares non-linear fit method with Prism 6.0 software (GraphPad Software, USA). FP signals were measured in millipolarization (mP) units using an Infinite F200 PRO microplate reader (Tecan Group Ltd., Switzerland) at an excitation wavelength of 485 nm and an emission wavelength of 535 nm. For displacement analysis, graded concentrations of YK1 and unlabeled ELF3137-144 peptides were mixed with 80 nM (His) 6-MED23391-582 and 10 nM FITC-ELF3129-145.
The effect of compound YK1 was confirmed by measuring the reduction in FP signals, using unlabeled peptides as a positive control. The IC50 of each compound was determined by fitting the data to a four-parameter logistic equation using the Table Curve 2D program (SPSS Inc.). The Ki value was calculated using the Cheng-Prusoff equation (Ki=IC50/1+([Ligand]/Kd))

HER2 gene = HER2 gene (mRNA) expression; type: cell-based; settings: dose-dependent
Description: To further confirm the effects of the candidate compound, […] quantitative analysis was performed. Specifically, RNA was extracted from cells using the FavorPrep Tri-RNA reagent (FAVORGEN Biotech Corp., Taiwan) and reverse-transcribed into complementary DNA (cDNA) using the PrimeScript RT Reagent Kit (Takara Bio Inc., Japan) following the manufacturer's instructions. Quantitative gene analysis was conducted using the SensiFAST SYBR No-ROX kit (Bioline, Canada). PCR was performed using the CFX96™ real-time PCR detection system (Bio-Rad, USA) under the following protocol: 95 °C for 2 minutes, and 27 cycles at 95 °C for 10 seconds, 56 °C for 10 seconds, and 72 °C for 20 seconds. The relative amount of mRNA was determined using the ΔΔCt method, and normalized against GAPDH or ACTIN. […]

[3] = tested on: HCT15 (HER2-positive colorectal cancer cell line); assay: antiproliferative effect, HCT15; type: cell-based; settings: Homo sapiens, HCT-15, 72 hours
Description: The antiproliferative effects were measured after treating Compounds 1 to 22 for 72 hours on HCT15 (HER2-positive colorectal cancer cell line), NCI-N87 (HER2-positive gastric cancer cell line), T47D (HER2-negative breast cancer cell line), and HeLa (HER2-negative cervical cancer cell line). As a result, strong antiproliferative effects were generally observed in the NCI-N87 cell line (Table 2).
The antiproliferative effects of the candidate compound, resulting from HER2 inhibition, were evaluated. Specifically, to confirm the anticancer effects of the candidate compound, cancer cells were seeded at a density of 10^4 cells/well in a 96-well cell culture plate for 20 hours. The cells were starved in serum-free media for 4 hours, followed by replacement with media containing the compound at specified concentrations. The cells were then incubated for 72 hours under conditions of 5% CO2 at 37 °C. Cell viability was determined by adding 5 μL of EZ-CytoX to each well and measuring absorbance at 450 nm. The measurements were performed using an ELISA Microplate Reader (VersaMax, Molecular Devices).

MED23 wild-type (FLAG-tagged), sequence (Q9ULK4 whole entry): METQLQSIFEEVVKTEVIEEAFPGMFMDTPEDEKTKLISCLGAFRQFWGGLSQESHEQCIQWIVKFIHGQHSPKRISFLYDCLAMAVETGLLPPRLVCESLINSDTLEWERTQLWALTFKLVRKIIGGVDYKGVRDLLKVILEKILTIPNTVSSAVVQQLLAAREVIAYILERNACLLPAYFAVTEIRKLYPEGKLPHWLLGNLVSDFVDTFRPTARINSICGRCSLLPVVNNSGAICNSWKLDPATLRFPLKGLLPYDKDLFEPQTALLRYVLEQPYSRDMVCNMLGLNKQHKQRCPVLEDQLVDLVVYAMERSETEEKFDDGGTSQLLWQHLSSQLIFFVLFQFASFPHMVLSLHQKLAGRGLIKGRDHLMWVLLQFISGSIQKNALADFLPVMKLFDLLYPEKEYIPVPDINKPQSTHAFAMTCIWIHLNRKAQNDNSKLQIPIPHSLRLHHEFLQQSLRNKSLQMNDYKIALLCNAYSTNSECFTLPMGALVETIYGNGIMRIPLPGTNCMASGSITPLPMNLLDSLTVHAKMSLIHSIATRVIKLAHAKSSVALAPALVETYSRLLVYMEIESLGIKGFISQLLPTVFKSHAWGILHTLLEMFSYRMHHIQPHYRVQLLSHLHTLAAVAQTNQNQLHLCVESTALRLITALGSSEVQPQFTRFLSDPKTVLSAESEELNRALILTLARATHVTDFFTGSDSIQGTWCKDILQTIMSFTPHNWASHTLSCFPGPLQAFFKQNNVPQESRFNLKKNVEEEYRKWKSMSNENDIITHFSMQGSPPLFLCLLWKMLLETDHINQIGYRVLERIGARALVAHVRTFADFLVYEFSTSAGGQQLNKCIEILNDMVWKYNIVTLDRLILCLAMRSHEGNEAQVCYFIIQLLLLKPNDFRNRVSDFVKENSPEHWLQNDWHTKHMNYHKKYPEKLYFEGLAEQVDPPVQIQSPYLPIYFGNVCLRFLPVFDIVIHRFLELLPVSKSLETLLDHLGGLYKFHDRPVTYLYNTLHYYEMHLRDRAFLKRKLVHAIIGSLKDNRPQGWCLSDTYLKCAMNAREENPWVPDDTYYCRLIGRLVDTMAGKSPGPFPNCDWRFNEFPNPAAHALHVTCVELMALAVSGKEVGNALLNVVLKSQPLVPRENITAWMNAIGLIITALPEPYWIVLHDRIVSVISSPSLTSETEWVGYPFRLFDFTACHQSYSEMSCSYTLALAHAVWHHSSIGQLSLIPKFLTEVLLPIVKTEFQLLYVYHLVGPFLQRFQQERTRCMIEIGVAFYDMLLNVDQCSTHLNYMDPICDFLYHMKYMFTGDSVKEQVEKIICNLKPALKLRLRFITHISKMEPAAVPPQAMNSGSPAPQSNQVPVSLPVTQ

## CC(=O)N1N=C(c2cccc(O)c2)CC1c1ccc(Cl)cc1 (stereo not shown) [Compound 15, 1-[5-(4-Chlorophenyl)-3-(3-hydroxyphenyl)-4,5-dihydropyrazol-1-yl]-ethanone]
[1]
  binding to wild-type MED23: able to bind to wild-type MED23
NCI-N87 cells
  G1 arrest, S and G2/M phases: promoted overall G1 arrest, accompanied by a decrease in the S and G2/M phases
NCI-N87 cells; time- and dose-dependent
  G1 cell fraction: significant increase in the G1 cell fraction
[2]; 80 nM (His)6-MED23391-582, 10 nM FITC-ELF3129-145, Cheng-Prusoff, read-out: PPI inhibitory activity calculated based on Ki value
  Ki: 4.27 ± 0.25 µM
[2]; displacement of FITC-ELF3129-145 from MED23391-582
  decrease in FP signals: significant decrease in FP signals
HER2 gene
  HER2 gene expression level: significantly downregulate HER2 gene and protein expression levels in a dose-dependent manner
[3]
  IC50: 7.66 ± 0.04 µM
